Assay results taken from patent US20220016060A1, “USE OF SODIUM 2-(3-PENTYLPHENYL)ACETATE IN THE TREATMENT OF ALSTRÖM SYNDROME” (LIMINAL BIOSCIENCES LIMITED, priority 2018, published 2022).
Values joined by “and” are separate entries in the source; they are usually repeats but may differ in a detail not shown here. Equal values may be shown once.

Tests used:
Assay type in all cases: in vivo, human
ALMS patients [1] = experiment: Urinary kidney toxicity biomarkers (MCP-1, KIM-1, clusterin, cystatin C, osteopontin); details: analyte/creatinine ratio in urine; 800 mg daily oral
Description: The study was a Phase 2, single-centre, single-arm, open-label study of sodium 2-(3-pentylphenyl)acetate administered at a total daily oral dose of 800 mg for up to 72 weeks in subjects with ALMS was undertaken. The initial duration of the study was 24 weeks, and subjects were offered to enrol into an extension phase of […]. The schedule of study procedures for the enrolment, intervention, and assessments for participants is outlined in FIG. 1. Sodium 2-(3-pentylphenyl)acetate was formulated in soft gelatine capsules containing 200 mg of Sodium 2-(3-pentylphenyl)acetate (amorphous powder) per capsule, polyethylene glycol 400, National Formulary (NF), hydrochloric acid (for pH adjustment), and water. […] The levels of these markers was assessed at baseline and after 24 weeks of treatment with sodium 2-(3-pentylphenyl)acetate in ALMS patients, and the results are reported in Table 15.

ALMS patients [2] = experiment: Cardiac MRI of left ventricular function (LVESV, LVEDV); details: for Change from Baseline LVEDV, Mean (SD) / Change from Baseline LVEDV, Median / Change from Baseline LVESV, Mean (SD) / Change from Baseline LVESV, Median: 800 mg daily oral
Description: The study was a Phase 2, single-centre, single-arm, open-label study of sodium 2-(3-pentylphenyl)acetate administered at a total daily oral dose of 800 mg for up to 72 weeks in subjects with ALMS was undertaken. The initial duration of the study was 24 weeks, and subjects were offered to enrol into an extension phase of 36 or 48 weeks. The schedule of study procedures for the enrolment, intervention, and assessments for participants is outlined in FIG. 1.
Sodium 2-(3-pentylphenyl)acetate was formulated in soft gelatine capsules containing 200 mg of Sodium 2-(3-pentylphenyl)acetate (amorphous powder) per capsule, polyethylene glycol 400, National Formulary (NF), hydrochloric acid (for pH adjustment), and water.
The effect of sodium 2-(3-pentylphenyl)acetate on heart histology in ALMS patients was assessed by measuring left ventricular function (LVF). LVF measurements permit to quantify how well the left ventricle is able to pump blood through the body with each heartbeat, and is also a prognostic factor in acute myocardial infarction.

ALMS patients [3] = experiment: Non-Alcoholic Fatty Liver Disease (NAFLD) Fibrosis Score; details: for Change from Baseline NAFLD Score with an FPG > 5.6 mmol/L, Mean (SD) / Change from Baseline NAFLD Score with an FPG > 5.6 mmol/L, Median / NAFLD Fibrosis Score in Subjects with an FPG > 5.6 mmol/L: 800 mg daily oral; for NAFLD Fibrosis Score in Subjects with an FPG > 5.6 mmol/L: individual subjects
Description: The study was a Phase 2, single-centre, single-arm, open-label study of sodium 2-(3-pentylphenyl)acetate administered at a total daily oral dose of 800 mg for up to 72 weeks in subjects with ALMS was undertaken. The initial duration of the study was 24 weeks, and subjects were offered to enrol into an extension phase of […]. The schedule of study procedures for the enrolment, intervention, and assessments for participants is outlined in FIG. 1. Sodium 2-(3-pentylphenyl)acetate was formulated in soft gelatine capsules containing 200 mg of Sodium 2-(3-pentylphenyl)acetate (amorphous powder) per capsule, polyethylene glycol 400, National Formulary (NF), hydrochloric acid (for pH adjustment), and water. The effect of sodium 2-(3-pentylphenyl)acetate on liver histology in ALMS patients was also assessed by measuring the Non-Alcoholic Fatty Liver Disease (NAFLD) Fibrosis Score. Increased NAFLD fibrosis score may be associated with hepatic dysfunction.

Compound: CCCCCc1cccc(CC(=O)[O-])c1.[Na+] [sodium 2-(3-pentylphenyl)acetate]
- Urinary Osteopontin, Mean Fold Change from Baseline to Week 24 (ALMS patients [1]): 0.82
- Urinary Osteopontin, mean change from Baseline to Week 24 (%) (ALMS patients [1]): −18%
- subjects in whom LVESV increased or did not change from baseline (ALMS patients [2]; 9/12 subjects): 75.0%
- subjects in whom LVEDV increased from baseline (ALMS patients [2]; 10/12 subjects): 83.3%
- Change from Baseline LVEDV, Mean (SD) (ALMS patients [2]; EP Week 36 (Week 60), N=4): 7.75 (3.948) mL
- Change from Baseline LVEDV, Median (ALMS patients [2]; EP Week 36 (Week 60), N=4): 8.50 mL
- Change from Baseline LVESV, Mean (SD) (ALMS patients [2]; EP Week 36 (Week 60), N=4): 3.75 (2.500) mL
- Change from Baseline LVESV, Median (ALMS patients [2]; EP Week 36 (Week 60), N=4): 3.50 mL
- Change from Baseline LVEDV, Mean (SD) (ALMS patients [2]; Week 24, N=10): 4.40 (16.574) mL
- Change from Baseline LVEDV, Median (ALMS patients [2]; Week 24, N=10): 5.00 mL
- Change from Baseline LVESV, Mean (SD) (ALMS patients [2]; Week 24, N=10): 0.70 (9.650) mL
- Change from Baseline LVESV, Median (ALMS patients [2]; Week 24, N=10): 3.00 mL
- change in LVESV from baseline (ALMS patients [2]; after 60 weeks of treatment): strong trend toward an increase
- mean increase in LVEDV from baseline (ALMS patients [2]; after 60 weeks of treatment, p=0.0294): 7.75 mL
- LVESV relative to normal range (ALMS patients [2]; subject 826-001-015): Normalization of LVESV after treatment
- LVEDV and LVESV relative to normal range (ALMS patients [2]; subjects 826-001-002 and 826-001-004, below normal at baseline): within the normal range after the treatment period
- subjects in whom NAFLD fibrosis score decreased or did not change from baseline (ALMS patients [3]; 7/12 subjects): 58.3%
- Change from Baseline NAFLD Score with an FPG > 5.6 mmol/L, Mean (SD) (ALMS patients [3]; EP Week 12 (Week 36), N=10): −0.39 (0.683)
- Change from Baseline NAFLD Score with an FPG > 5.6 mmol/L, Median (ALMS patients [3]; EP Week 12 (Week 36), N=10): −0.69
- Change from Baseline NAFLD Score with an FPG > 5.6 mmol/L, Mean (SD) (ALMS patients [3]; EP Week 24 (Week 48), N=9): −0.34 (0.758)
- Change from Baseline NAFLD Score with an FPG > 5.6 mmol/L, Median (ALMS patients [3]; EP Week 24 (Week 48), N=9): −0.28
- Change from Baseline NAFLD Score with an FPG > 5.6 mmol/L, Mean (SD) (ALMS patients [3]; EP Week 36 (Week 60), N=9): −0.16 (0.684)
- Change from Baseline NAFLD Score with an FPG > 5.6 mmol/L, Median (ALMS patients [3]; EP Week 36 (Week 60), N=9): −0.14
- increase in NAFLD fibrosis score from baseline (ALMS patients [3]; Subject 826-001-001, 204-day break in treatment): 0.7
- Change from Baseline NAFLD Score with an FPG > 5.6 mmol/L, Mean (SD) (ALMS patients [3]; Week 12, N=11): −0.35 (0.582)
- Change from Baseline NAFLD Score with an FPG > 5.6 mmol/L, Median (ALMS patients [3]; Week 12, N=11): −0.34
- Change from Baseline NAFLD Score with an FPG > 5.6 mmol/L, Mean (SD) (ALMS patients [3]; Week 24, N=9): 0.16 (0.446)
- Change from Baseline NAFLD Score with an FPG > 5.6 mmol/L, Median (ALMS patients [3]; Week 24, N=9): 0.21
- NAFLD Fibrosis Score in Subjects with an FPG > 5.6 mmol/L (ALMS patients [3]; EP Week 12 (Week 36)): −1.9 and −3.1 and −3.8 (4×) and −1.6 and −1.2 and 0.2 and −3.6
- NAFLD Fibrosis Score in Subjects with an FPG > 5.6 mmol/L (ALMS patients [3]; EP Week 24 (Week 48)): −1.9 and −4.4 and −3.0 and −3.8 and −0.8 and −1.0 and −3.1 and 0.5 and −4.2
- NAFLD Fibrosis Score in Subjects with an FPG > 5.6 mmol/L (ALMS patients [3]; EP Week 36 (Week 60)): −1.5 and −3.7 and −2.9 (2×) and −4.2 and −1.1 and 0.2 and −3.4 and −3.8
- NAFLD Fibrosis Score in Subjects with an FPG > 5.6 mmol/L (ALMS patients [3]; Week 12): −2.5 and −1.8 and −3.9 (2×) and −3.1 and −1.4 and −0.8 (2×) and −3.3 and 0.6 and −4.3
- NAFLD Fibrosis Score in Subjects with an FPG > 5.6 mmol/L (ALMS patients [3]; Week 24): −1.5 and −1.9 and −2.7 (2×) and −3.8 and −0.2 and −2.9 and −1.0 and −3.7
